In patent US7858332B2, “Chemoprevention of endometrial cancer” (The Brigham and Women's Hospital, Inc., priority 2006, dated 2010):

System: PTEN-null endometrial glands (latent endometrial precancers)
Experiment: Latent precancers (PTEN-null glands by immunohistochemistry) in paired endometrial biopsies before and after progestin therapy
Format: in vivo, women
Conditions: pre versus post therapy
Description: Women in Northern Norway (Tromso region) with successive endometrial biopsies taken under different hormonal conditions form the three main experimental groups of this study. Clinical aspects of these patients have been published elsewhere (Vereide, et al., Gynecol Oncol 91:526-33 (2003)), but will be summarized here. […] Just under half (10 of 22 reported in results) received low dose hormonal replacement therapy as follows: norestrin 1 mg/estradiol 2mg daily (6 patients), estriol 1-2mg daily (3 patients), tibolone 2.5 mg daily (1 patient), no therapy (12 patients). All patient materials were compiled from existing pathologic tissues generated as part of routine patient care (“discarded materials”), except for the P-IUD group, which was consented in advance. […]
Paraffin sections of endometrial biopsy and curetting specimens were rehydrated, and underwent antigen retrieval by microwave before overnight (4° C.) incubation with 1:300 murine monoclonal anti-PTEN antibody 6h2.1 (Cascade Biosciences, Winchester, Mass.) as previously described (Mutter, et al, Cancer Res 61:43114 (2001)). Slides were washed, and incubated with appropriate secondary biotinylated immunoglobulin (Vectastain ABC kit, Vector Laboratories, Inc., Burlingame, Calif.) and signal detected by sequential addition of avidin peroxidase and 3,3′-diaminobenzidine. […]

CC(=O)[C@@]1(O)CC[C@H]2[C@@H]3C[C@H](C)C4=CC(=O)CC[C@]4(C)[C@H]3CC[C@@]21C [p-cycle, medroxyprogesterone]
Change of latent precancers after therapy (in words): non-significant changes
